For 36 compounds, half-life results are on record in PubChem BioAssay AID1508591.

Where “and” joins values, the source holds several entries; their conditions need not be identical. Identical values can stand only once.

The conditions of this series: rat; liver microsomes; pH 7.4; 15.0 min; 1.0 µM.

Take `Cc1ccc(NS(=O)(=O)c2ccccc2C(=O)Nc2nc(-c3ccccc3)cs2)cc1`: the half-life amounted to 15 min.

For the compound `CC(C)Oc1ccc(-c2ccc(=O)n(CC(=O)NCCc3ccccc3)n2)cc1`, the half-life is 1.6 min.

With `CCOc1ccccc1N(CC(=O)Nc1cc(OC)ccc1OC)S(=O)(=O)c1ccccc1`, the half-life is 1.38 min.

As to `COc1cc2cc(CN3CCC(N(C)C)C3)c(-c3cccc(Cl)c3)nc2cc1OC` (stereo unspecified), the half-life is 23.1 min. This half-life lies about 17-fold higher than the previous one.

In the case of `C#CC1(O)CCC2C3CCC4=C/C(=N/OCC(=O)NCC(=O)NC(C(=O)O)C(C)C)CC[C@]4(C)C3CC[C@@]21C` (stereo partly specified), the half-life is over 30 min.

`CN(C)CCCn1cc(C2=C(c3c[nH]c4ccccc34)C(=O)NC2=O)c2ccccc21` registered a half-life of 10.5 min.

As to `CC(=O)O[C@H]1CC[C@]2(C)C(=CC[C@H]3[C@H]4C[C@H]5O[C@]6(CC[C@H](C)CN6)[C@H](C)[C@@H]5[C@]4(C)CC[C@@H]32)C1`, the half-life stood at 1.58 min.

The compound `Cc1cc(-c2nnc3n2CCCCC3)c(C)n1-c1cccc(C(F)(F)F)c1` yielded a half-life of 1.9 min.

Consider `COc1ccc(C2Nc3ccccc3C(=O)N2Cc2ccco2)cc1COc1ccc(NC(C)=O)cc1` (stereo unspecified), for which the half-life was 1.35 min and 2.57 min.

`CCn1nnnc1Sc1ncnc2scc(-c3ccc(C)cc3)c12` registered a half-life of 1.4 min.

`COc1ccc(Nc2nc(-c3ccncc3)nc3ccccc23)cc1F`: the half-life is 9.7 min.

As to `O=C(Nc1ncc(Cc2ccc(C(F)(F)F)cc2)s1)c1cn(-c2ccccc2)cn1`, the half-life was over 30 min.

Compound `Cc1sc(NC(=O)Cc2ccc3c(c2)OCO3)nc1-c1ccc2c(c1)CCN2C` showed a half-life of 5.5 min.

For `NC(=O)C1CCN(c2nc(-c3ccc(Oc4ccccc4)cc3)cs2)CC1`, the half-life worked out at 18.5 min. Against the preceding compound, the half-life is about 3.4-fold higher.

With `CCNC(=O)c1coc(COc2ccc3c(c2)C(c2ccc(F)cc2)N(C(=O)CC(C)C)CC3)n1` (stereo unspecified), the half-life was 1.55 min.

`Cc1cc(-c2nnc3n2CCCCC3)c(C)n1-c1cccc(Cl)c1`: the half-life was 1.95 min.

`CC(C)c1ccc(S(=O)(=O)c2cnc(SCC(=O)Nc3ccc4c(c3)OCCO4)[nH]c2=O)cc1` had a half-life of 3.84 min.

`Cc1ccc(C(N)=O)cc1Nc1nccc(-c2cn(C(C)C)c3cnccc23)n1` displayed a half-life of over 30 min.

Turning to `Cn1nnnc1Sc1ncnc2sccc12`, the half-life is over 30 min.

The compound `O=C(N/N=C/c1ccc(Sc2ccccn2)o1)c1ccncc1` yielded a half-life of over 30 min.

Turning to `CC[C@@H]1C(=O)N(C)c2cnc(Nc3ccc(C(=O)NC4CCN(C)CC4)cc3OC)nc2N1C1CCCC1`, the half-life was over 30 min.

As to `O=C(O)c1ccnc2cc(-c3nc4ccccc4n3CCN3CCCCC3)sc12`, the half-life was over 30 min.

Consider `COc1cccc(CNc2ccc(S(=O)(=O)Nc3ccc(C)nc3)cc2)c1O`, for which the half-life came out at 16 min.

`O=C1CCc2cc(S(=O)(=O)Nc3ccc(F)c(Cl)c3)ccc2N1` displayed a half-life of 20.5 min.

In turn, `Cc1ccccc1C(=O)N1CCc2cc(-c3ccnc(NC(=O)Cc4ccccc4)n3)ccc21` displayed a half-life of 5.5 min.

In the case of `O=C(Nc1cccc(S(=O)(=O)C(F)(F)F)c1)c1ccccc1NC(=O)c1ccccc1OCC(F)(F)F`, the half-life is over 30 min.

In turn, `CC(=O)c1c(C)[nH]c(C(=O)Nc2cccc([S+](=O)([O-])Nc3cccnc3)c2)c1C` came in with a half-life of 17 min.

The compound `Cc1cccc(NCc2ccc(O)c3ncccc23)c1` returned a half-life of 2.2 min. This half-life is about 7.7-fold lower than that of the compound before.

For `CC(C)c1ccccc1-c1ncc(F)c(NCc2ccc(-c3cccnc3)s2)n1`, the half-life came out at 2.8 min. The half-life values of the last two compounds are within 1.5-fold of each other.

Turning to `Cc1ccc(C)n1-c1cccc(C(=O)O)c1`, the half-life amounted to 12 min. This half-life is about 4.3-fold higher than that of the compound before.

Turning to `COc1cc(/C=C(\C#N)c2nc3ccccc3[nH]2)ccc1OCc1ccc(F)cc1`, the half-life was 7.99 min.

In turn, `COc1ccc(OC)c(CNc2ncnc3onc(C)c23)c1` registered a half-life of 5.68 min.

`Oc1ccc(NCc2ccccc2OCc2ccccc2Cl)cc1` came in with a half-life of 2.03 min. Compared with the last compound, the half-life is about 2.8-fold lower.

The compound `Cc1cccc(C(=O)Nc2ccc(N3CCC(N4CCCCC4)CC3)c(C(=O)O)c2)c1` gave a half-life of over 30 min.

`Cc1ccc(-c2cc(C(=O)O)c3ccccc3n2)cc1` showed a half-life of 22.4 min.

`C[C@H]1CN(C(=O)c2nn(C)c3ccccc23)C[C@@H]1c1nc(-c2ccncc2)no1` showed a half-life of 5.01 min.
